Laboratory results taken from US9718770B2, “Substituted thioureas as heat shock protein 70 inhibitors” (Institute of Pharmacology and Toxicology Academy of …, priority 2013, dated 2017).

Experiments:
Hsp70 ATPase = biological target: T1, Hsp70 ATPase (Homo sapiens, UniProt P0DMV8); experiment: Inhibition of Hsp70 ATPase activity (malachite green); format: biochemical; details: for Inhibitory rate (%) on activity of Hsp70 ATPase / inhibitory rate of Hsp70 ATPase activity / inhibition at 200 µM: 200 μM; for Inhibitory rate (%) on activity of Hsp70 ATPase / inhibition at 200 µM: repeated screening carried out twice, Hsp70/Hsp40, 1 mM ATP; for dose-response relationship with respect to inhibition of Hsp70 ATPase activity: first preliminary screening, 200, 100, 50, 25 and 12.5 μM with Hsp70/Hsp40, FIGS. 1, 2; for inhibitory rate of Hsp70 ATPase activity: preliminary screening, after incubation for 30 min; for inhibition at 200 µM: read-out: Inhibitory rate (%) on activity of Hsp70 ATPase
T1 construct: made in house; host or cells: E. coli
T1 sequence (P0DMV8 2-641 limits assumed): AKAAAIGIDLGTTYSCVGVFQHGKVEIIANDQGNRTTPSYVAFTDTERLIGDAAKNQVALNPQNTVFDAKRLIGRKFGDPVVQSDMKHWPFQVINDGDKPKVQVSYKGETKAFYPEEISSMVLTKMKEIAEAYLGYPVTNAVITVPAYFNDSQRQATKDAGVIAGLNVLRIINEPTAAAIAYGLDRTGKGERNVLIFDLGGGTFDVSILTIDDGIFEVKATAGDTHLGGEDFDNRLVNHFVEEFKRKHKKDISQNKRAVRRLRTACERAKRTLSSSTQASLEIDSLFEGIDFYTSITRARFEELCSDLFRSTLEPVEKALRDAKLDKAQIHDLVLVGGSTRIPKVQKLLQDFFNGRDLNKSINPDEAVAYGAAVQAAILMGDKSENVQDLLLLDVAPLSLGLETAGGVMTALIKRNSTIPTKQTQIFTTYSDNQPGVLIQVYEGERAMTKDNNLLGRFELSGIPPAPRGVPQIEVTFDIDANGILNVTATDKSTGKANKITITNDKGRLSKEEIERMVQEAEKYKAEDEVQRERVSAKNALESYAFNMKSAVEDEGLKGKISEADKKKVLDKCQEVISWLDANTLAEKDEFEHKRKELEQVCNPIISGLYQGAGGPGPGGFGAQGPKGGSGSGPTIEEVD
Procedure: (1) Protein: Humanized Hsp70, Hsp40, expressed by E. coli.
(2) Sample to be tested: 26 compound solids with different colors and states. Positive drugs AZ (CAS:1054543-47-3) and VER 155008 (CAS: 1134156-31-2) were synthesized in the laboratory.
(4) ATPase Assay buffer: • 0.017% Triton X-100; • 100 mM Tris-HCl; • 20 mM KCl; • 6 mM MgCl2, pH 7.4.
1) 13.08 μl DnaK (0.15 mg/mL, 2.14 μM), 1.96 μl DnaJ (1 mg/mL, 25 μM) were dissolved in 7.96 μl Assay Buffer (0.017% Triton X-100, 100 mM Tris-HCl, 20 mM KCl, and 6 mM MgCl2, pH 7.4), and the resultant solution was added to each well of the 96 well plate;
2) to each well of the 96 well plate, 1 μL sample to be tested (5 mM) or DMSO (solvent) was added, and vortexed with a Vortex agitator for 10 min; and then standing at 37° C. for 30 min;
3) to each well, 1 μL 25 mM ATP was added, to trigger the enzymatic reaction; (in each well, the final reaction volume was 25 μL, the final concentration of DnaK was 1.12 μM, the final concentration of DnaJ was 1.96 μM, the final concentration of DMSO was 4%, the final concentration of Triton X-100 was 0.01%, the final concentration of ATP was 1 mM, and the final concentration of sample to be tested was 200 μM), the enzymatic reaction was carried out at 37° C. for 3 h;
4) 80 μL Malachite green staining solution was then added to each well, and was vortexed gently;
5) 10 μL of 34% citrate sodium was then added immediately, and vortexed gently, to stop the ATP hydrolysis not caused by ATPase;
6) the resultant mixture was mixed thoroughly at 37° C. for 15 min, and OD620 was measured.
The inhibitory rate of Hsp70 ATPase activity is calculated in accordance with the following formula: Inhibitory rate (%)=(DMSO well OD−Experimental well OD)/(DMSO well OD−Blank well OD)×100
Criteria for preliminary screening: during preliminary screening, an example compound is regarded as effective in inhibition as long as its inhibitory rate is above 20% for Hsp70 ATPase at 200 μM.

BT474 = experiment: CDI of example compounds and Lapatinib (ATPlite cell survival); format: cell-based; design: key: CDI = AB/(A×B); <1 synergistic; details: compound 5 μM + Lapatinib 1 μM, 72 h; Lapatinib-sensitive human breast cancer cells; CDI<1 synergistic, <0.7 very significant, >1 antagonistic
Procedure: (§1) Cells: (BT474 and SK-BR3 are Lapatinib-sensitive human breast cancer cell strains; BT/LapR and SK/LapR are secondary Lapatinib-resistant human breast cancer cell strains upon Lapatinib stimulation; MDA-MB-361 and MDA-MB-453 are natural Lapatinib-resistant human breast cancer cell strains. BT474, MDA-MB-361, SK-BR3 and MDA-MB-453 are from American Type Culture Collection (ATCC))
(§2) In a 100 mm culture dish full of adherent cells, digestion with 1 ml 0.25% pancreatin (GIBCO) was carried out at 37° C. for 5 min, and the reaction was stopped with 2 ml medium (containing 10% FBS, GIBCO). The cells were dispersed and collected. After cell count, the cells were diluted to a concentration of 1×10^5 cells/ml, and were seeded to a 96-well plate at 50 μl/well, 5000 cell/well, 60 wells in total, PBS instead of cells was added to the wells of the outmost circle, and the incubation was carried out at 37° C. for 24 h for adherence.
(§3) For the sample group, samples to be tested were diluted with DMSO to a final concentration of 5 μM; to control wells, the medium containing the same concentration of solvent corresponding to the compound was added, the concentrations of the compounds were identical in each well, 5 wells in parallel were set for each concentration, 25 μL/well, and 25 μL medium was added to each well (for the combination group, 25 μL Lapatinib was added to reach a final concentration of 1 μM). The incubation was carried out at 37° C. for 72 h.
(§4) To each well, 50 μL ATPlite kit substrate solution was added. The plate was under shaking for 3 min, and was then placed in dark for 10 min. The lysis supernatant was drawn at 100 μL/well, and placed in a luminescent plate. The incubated luminescent plate was placed in an iluminescence apparatus, and the iluminescent value was read.
(§5) Data Processing Cell survival rate (%)=Experimental group RLU/control group RLU×100%
(§6) Coefficient of drug interaction (CDI) is used to evaluate the interaction of two drugs, CDI is calculated in accordance with the following formula: CDI=AB/(A×B)×100%. The calculation is performed according to the number of live cells (luminescent value), if CDI<1, the two drugs have a synergistic effect; if CDI<0.7, the synergistic effect is very significant; if CDI=1, the effect of the two drugs in combination is the sum of the effects of the two drugs; if CDI>1, the two drugs have an antagonistic effect.

MDA-MB-361 = experiment: as above; format: cell-based; design: key: CDI = AB/(A×B); <1 synergistic; details: compound 5 μM + Lapatinib 1 μM, 72 h; natural Lapatinib-resistant human breast cancer cells; CDI<1 synergistic
Procedure: as §1, §2, §3, §4, §5, §6

SK-BR3 = experiment: as above; format: cell-based; design: key: CDI = AB/(A×B); <1 synergistic; details: compound 5 μM + Lapatinib 1 μM, 72 h; Lapatinib-sensitive human breast cancer cells; CDI<1 synergistic
Procedure: as §1, §2, §3, §4, §5, §6

MDA-MB-453 = experiment: as above; format: cell-based; design: key: CDI = AB/(A×B); <1 synergistic; details: compound 5 μM + Lapatinib 1 μM, 72 h; natural Lapatinib-resistant human breast cancer cells; CDI<1 synergistic
Procedure: as §1, §2, §3, §4, §5, §6

SK/Lap^R1.0 = experiment: as above; format: cell-based; details: compound 5 μM + Lapatinib 1 μM, 72 h; secondary Lapatinib-resistant human breast cancer cells; CDI<1 synergistic
Procedure: as §1, §2, §3, §4, §5, §6

BT/Lap^R1.0 = experiment: as above; format: cell-based; details: compound 5 μM + Lapatinib 1 μM, 72 h; secondary Lapatinib-resistant human breast cancer cells; CDI<1 synergistic
Procedure: as §1, §2, §3, §4, §5, §6

SMILES | Inhibitory rate (%) on activity of Hsp70 ATPase (Hsp70 ATPase) [%] | dose-response relationship with respect to inhibition of Hsp70 ATPase activity (Hsp70 ATPase) | inhibitory rate of Hsp70 ATPase activity (Hsp70 ATPase) [%] | CDI of example compounds and Lapatinib, BT474 (BT474) | CDI of example compounds and Lapatinib, MDA-MB-361 (MDA-MB-361) | CDI of example compounds and Lapatinib, SK-BR3 (SK-BR3) | CDI of example compounds and Lapatinib, MDA-MB-453 (MDA-MB-453) | inhibition at 200 µM (Hsp70 ATPase) [%] | CDI of example compounds and Lapatinib, SK/Lap^R1.0 (SK/Lap^R1.0) | CDI of example compounds and Lapatinib, BT/Lap^R1.0 (BT/Lap^R1.0)
COc1ccc(-c2nc(-c3cc(C(F)(F)F)cc(C(F)(F)F)c3)n(Cc3ccc(C(N)=O)cc3)c2-c2ccc(OC)cc2)cc1 [AZ, reference compound] | 53.04 | dose-response relationship | 53.13 | – | – | – | – | – | – | –
COc1cc(/C=C/C(=O)NC(CC(C)C)NC(=S)Nc2ccccc2)cc(OC)c1OC (stereo not shown) [Example 24, (2E)-N-[3-methyl-1-(3-phenylthioureido)butyl]-3-(3,4,5-trimethoxyphenyl) acrylamide] | – | – | – | 1.03 | 0.92 | 1.04 | 1.12 | 50.4 | 1 | 0.98
COc1cc(/C=C/C(=O)NC(CC(C)C)NC(=S)Nc2cccnc2)cc(OC)c1OC (stereo not shown) [Example 25, (2E)-N-[3-methyl-1-(3-pyridin-3-ylthioureido)butyl]-3-(3,4,5-trimethoxyphenyl) acrylamide] | – | – | – | 0.94 | 0.93 | 1.04 | 1.2 | 38.5 | 0.93 | 0.97
COc1cc(/C=C/C(=O)NC(NC(=S)Nc2ccccc2)C(C)(C)C)cc(OC)c1OC (stereo not shown) [Example 26] | – | – | – | 1.02 | 0.99 | 1.03 | 0.89 | 4.55 | 1.02 | 0.96
COc1cc(/C=C/C(=O)NC(NC(=S)Nc2cccnc2)C(C)(C)C)cc(OC)c1OC (stereo not shown) [Example 27, (2E)-N-[2,2-dimethyl-1-(3-pyridin-3-ylthioureido)propyl]-3-(3,4,5-trimethoxyphenyl) acrylamide] | – | – | – | 0.98 | 0.96 | 1 | 1.32 | 2.17 | 0.97 | 1.01
COc1cc(/C=C/C(=O)NC(NC(=S)Nc2ccccc2)C2CC2)cc(OC)c1OC (stereo not shown) [Example 28, (2E)-N-[cyclopropyl-(3-phenylthioureido)-methyl]-3-(3,4,5-trimethoxyphenyl) acrylamide] | – | – | – | 1.07 | 0.93 | 1.06 | 1.21 | 50.5 | 0.95 | 0.99
COc1cc(/C=C/C(=O)NC(NC(=S)Nc2cccnc2)C2CC2)cc(OC)c1OC (stereo not shown) [Example 29, (2E)-N-[cyclopropyl-(3-pyridin-3-ylthioureido)-methyl]-3-(3,4,5-trimethoxyphenyl) acrylamide] | – | – | – | 1.05 | 1 | 0.98 | 1.05 | 2.55 | 1.26 | 0.99
COc1cc(/C=C/C(=O)NC(NC(=S)Nc2ccccn2)C2CC2)cc(OC)c1OC (stereo not shown) [Example 30, (2E)-N-[cyclopropyl-(3-pyridin-2-ylthioureido)-methyl]-3-(3,4,5-trimethoxyphenyl) acrylamide] | – | – | – | 0.94 | 0.85 | 0.94 | 1.28 | -5.66 | 0.82 | 0.93
COc1cc(/C=C/C(=O)NC(NC(=S)Nc2ccccc2)C(C)C)cc(OC)c1OC (stereo not shown) [Example 36, (2E)-N-[2-methyl-1-(3-phenylthioureido)propyl]-3-(3,4,5-trimethoxyphenyl) acrylamide] | – | – | – | 0.97 | 0.98 | 1.07 | 1.3 | – | 0.94 | 0.96
N#Cc1ccc(COC[C@H]2O[C@@H](n3c(NCc4ccc(Cl)c(Cl)c4)nc4c(N)ncnc43)[C@H](O)[C@@H]2O)cc1 [VER155008, reference compound] | 43.03 | dose-response relationship | 38.18 | – | – | – | – | – | – | –
